Assay results from paper PMC9334755 (Cancer Biology & Medicine, 2021).
Where two headings read alike, the source gives them in different places.

Tests used:
FGFR3 = FGFR3 (Homo sapiens, UniProt P22607); assay: Protein kinase panel at 1 µM, FGFR3; format: biochemical
FGR = FGR (Homo sapiens, UniProt P09769); assay: Protein kinase panel at 1 µM, FGR; format: biochemical
FRK = FRK (Homo sapiens, UniProt P42685); assay: Protein kinase panel at 1 µM, FRK; format: biochemical
FYN = FYN (Homo sapiens, UniProt P06241); assay: Protein kinase panel at 1 µM, FYN; format: biochemical
LYN A = LYN A (Homo sapiens, UniProt P07948); assay: Protein kinase panel at 1 µM, LYN A; format: biochemical
YES1 = YES1 (Homo sapiens, UniProt P07947); assay: Protein kinase panel at 1 µM, YES1; format: biochemical
TMD8 = assay: Cell viability assay (CellTiter-Blue), TMD8; format: cell-based, human; settings: TMD8 cells; read-out: IC50 (nM), growth of TMD8
Description: (§1) Cells were seeded on 96-well plates (9,000 cells/well), cultured at 37 °C in 5% CO2 overnight, and incubated with different concentrations of compounds for 3 or 7 days. Then the cells were stained with CellTiter-Blue® reagent (Promega) for 4 h at 37 °C. The fluorescence signals were detected with a FlexStation 3, and the IC50 values of each compound were determined with GraFit software (Version 6.0).

B cell = assay: Cell viability assay (CellTiter-Blue), human B cells; format: cell-based; settings: read-out: IC50 (nM), growth of B cell
Description: as §1
(§2) CD19^+ B (>80% purity) and CD3^+ T (>90% purity) cells were purified with human B cell enrichment cocktail and human T cell enrichment cocktail (Stem Cell Technology), respectively. Cells were seeded on 12-well plates and incubated with different concentrations of BTK inhibitors for 1 h. B cells were stimulated with 50 µg/mL anti-human IgM F(ab′)2, and T cells were stimulated with 50 µg/mL anti-CD3/CD28 beads overnight. In the washout groups, the cell medium containing the indicated inhibitors was replaced with fresh medium before stimulation. Then cells were then incubated with anti-human CD69 for 1 h and analyzed with a Guava flow cytometer.

T cell = assay: Cell viability assay (CellTiter-Blue), human T cells; format: cell-based; settings: read-out: IC50 (nM), growth of T cell
Description: as §1, §2

Beagle dog = settings: in vivo
From the text: (§3) Table S9 Preclinical safety of SY-1530
(§4) Group Single-dose toxicity Multiple-dose toxicity
(§5) Animal Rat Beagle dog Rat Beagle dog

Rat = settings: in vivo
From the text: as §3, §4, §5

BTK = BTK (Homo sapiens, UniProt Q06187); assay: LC-MS/MS of free inhibitor after incubation with BTK; format: binding
Description: In addition, after incubation of BTK with the inhibitors for 4 h, we performed liquid chromatography-tandem mass spectrometry (LC-MS/MS) to detect the abundance of the inhibitors.
(A) The compounds were incubated with BTK for 2 h, after which HTRF assays were performed with dilution of the mixture. The reactions were stopped at different time points. Data are shown as the mean ± SEM. (B) The content of the compounds was measured with LC-MS/MS after incubation with BTK for 4 h. Data are shown as the mean ± SEM (n = 3). Statistical analysis was performed with Student’s t-test (***P < 0.001). […] Cells were lysed and analyzed by Western blot and fluorescent gel scanning.
Data are shown as the mean ± SEM. […] Data are shown as the mean ± SEM of 3 independent experiments. Statistical analysis was performed with Student’s t-test (**P < 0.01, ***P < 0.001). […] Cells were lysed and then analyzed by Western blot and fluorescent gel scanning. […] Cells were lysed and analyzed by Western blot and fluorescent gel scanning.

human peripheral B cells = assay: CD69 up-regulation in B cells after anti-IgM stimulation; format: cell-based
Description: as §2
(§6) Figure 4 SY-1530 blocks B-cell receptor signaling and induces apoptosis. (A–D) Human B and T cells were purified and incubated with different concentrations of BTK inhibitors for 1 h. B cells were stimulated with 50 μg/mL anti-human IgM F(ab′)2, and T cells were stimulated with 50 μg/mL anti-CD3/CD28 beads overnight directly or after washout of BTK inhibitors before stimulation. The percentage of CD69 positive cells was analyzed by flow cytometry. Data are shown as the mean ± SEM (n = 3). Statistical analysis was performed with Student’s t-test (*P < 0.05, **P < 0.01, ***P < 0.001). (E) Pfeiffer cells and Romas cells were preincubated with different concentrations of compounds for 1 h, washed with PBS, and then stimulated with anti-IgM/anti-IgG (10 μg/mL) for 10 min. Cells were lysed and analyzed by Western blot with the indicated antibodies. (F) Pfeiffer cells were treated with various concentrations of SY-1530 for 24 h. The cells were stained with both PE-Annexin and 7-AAD and analyzed by flow cytometry. Data are shown as the mean ± SEM (n = 3). Statistical analysis was performed with Student’s t-test (*P < 0.05, **P < 0.01). (G) Pfeiffer cells were incubated with BTK inhibitors in the presence of z-VAD-fmk (caspase inhibitor) or DMSO for 24 h. Cells were lysed and analyzed with specific antibodies.

human peripheral T cells = assay: CD69 up-regulation in T cells after anti-CD3/CD28 stimulation; format: cell-based
Description: as §2, §6

[1] = dog, in vivo
[2] = mouse
[3] = dog
[4] = monkey
TEC = TEC (Homo sapiens, UniProt P42680); assay: HTRF kinase assay, TEC
Description: (§7) Homogeneous time-resolved fluorescence (HTRF) assays were performed with a HTRF® KinEASE™-TK kit (Trevigen).

EGFR = EGFR (Homo sapiens, UniProt P00533); assay: HTRF kinase assay, EGFR
Description: as §7

[5] = IC50 SY-1530 over IC50 ibrutinib

TEC, sequence (P42680 whole entry): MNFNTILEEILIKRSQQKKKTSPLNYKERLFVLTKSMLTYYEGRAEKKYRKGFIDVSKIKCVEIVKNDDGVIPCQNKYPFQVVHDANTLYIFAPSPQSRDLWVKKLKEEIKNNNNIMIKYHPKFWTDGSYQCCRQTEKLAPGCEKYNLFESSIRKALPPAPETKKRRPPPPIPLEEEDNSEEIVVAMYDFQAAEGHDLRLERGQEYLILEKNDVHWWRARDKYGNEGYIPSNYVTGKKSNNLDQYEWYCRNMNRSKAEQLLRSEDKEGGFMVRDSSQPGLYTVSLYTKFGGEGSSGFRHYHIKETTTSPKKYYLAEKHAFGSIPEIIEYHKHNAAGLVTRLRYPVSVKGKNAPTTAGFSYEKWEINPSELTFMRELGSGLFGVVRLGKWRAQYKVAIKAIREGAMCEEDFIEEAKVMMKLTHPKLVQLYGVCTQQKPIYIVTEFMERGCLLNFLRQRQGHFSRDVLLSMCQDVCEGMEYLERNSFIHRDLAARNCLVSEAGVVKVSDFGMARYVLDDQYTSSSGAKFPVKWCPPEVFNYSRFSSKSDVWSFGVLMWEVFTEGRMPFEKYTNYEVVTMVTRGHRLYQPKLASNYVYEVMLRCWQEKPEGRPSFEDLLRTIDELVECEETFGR
BTK, sequence (Q06187 whole entry): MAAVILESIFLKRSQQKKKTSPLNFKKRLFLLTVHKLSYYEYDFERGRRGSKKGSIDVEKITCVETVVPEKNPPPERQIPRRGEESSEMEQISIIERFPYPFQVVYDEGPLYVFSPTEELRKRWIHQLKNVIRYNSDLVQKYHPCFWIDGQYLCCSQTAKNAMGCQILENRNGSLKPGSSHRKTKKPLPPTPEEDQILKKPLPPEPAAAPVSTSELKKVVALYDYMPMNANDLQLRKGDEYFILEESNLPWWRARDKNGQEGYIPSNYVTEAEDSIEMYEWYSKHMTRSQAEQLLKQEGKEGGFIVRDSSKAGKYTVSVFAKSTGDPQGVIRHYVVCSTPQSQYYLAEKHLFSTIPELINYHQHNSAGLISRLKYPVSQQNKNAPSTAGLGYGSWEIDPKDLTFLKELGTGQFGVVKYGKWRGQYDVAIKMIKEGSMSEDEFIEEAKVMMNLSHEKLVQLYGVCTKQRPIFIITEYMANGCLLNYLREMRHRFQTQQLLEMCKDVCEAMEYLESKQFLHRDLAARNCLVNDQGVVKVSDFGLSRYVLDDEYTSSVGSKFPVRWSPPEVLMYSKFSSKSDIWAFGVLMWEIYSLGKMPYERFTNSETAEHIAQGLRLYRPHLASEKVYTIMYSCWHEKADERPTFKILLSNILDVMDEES
EGFR, sequence (P00533 25-1210): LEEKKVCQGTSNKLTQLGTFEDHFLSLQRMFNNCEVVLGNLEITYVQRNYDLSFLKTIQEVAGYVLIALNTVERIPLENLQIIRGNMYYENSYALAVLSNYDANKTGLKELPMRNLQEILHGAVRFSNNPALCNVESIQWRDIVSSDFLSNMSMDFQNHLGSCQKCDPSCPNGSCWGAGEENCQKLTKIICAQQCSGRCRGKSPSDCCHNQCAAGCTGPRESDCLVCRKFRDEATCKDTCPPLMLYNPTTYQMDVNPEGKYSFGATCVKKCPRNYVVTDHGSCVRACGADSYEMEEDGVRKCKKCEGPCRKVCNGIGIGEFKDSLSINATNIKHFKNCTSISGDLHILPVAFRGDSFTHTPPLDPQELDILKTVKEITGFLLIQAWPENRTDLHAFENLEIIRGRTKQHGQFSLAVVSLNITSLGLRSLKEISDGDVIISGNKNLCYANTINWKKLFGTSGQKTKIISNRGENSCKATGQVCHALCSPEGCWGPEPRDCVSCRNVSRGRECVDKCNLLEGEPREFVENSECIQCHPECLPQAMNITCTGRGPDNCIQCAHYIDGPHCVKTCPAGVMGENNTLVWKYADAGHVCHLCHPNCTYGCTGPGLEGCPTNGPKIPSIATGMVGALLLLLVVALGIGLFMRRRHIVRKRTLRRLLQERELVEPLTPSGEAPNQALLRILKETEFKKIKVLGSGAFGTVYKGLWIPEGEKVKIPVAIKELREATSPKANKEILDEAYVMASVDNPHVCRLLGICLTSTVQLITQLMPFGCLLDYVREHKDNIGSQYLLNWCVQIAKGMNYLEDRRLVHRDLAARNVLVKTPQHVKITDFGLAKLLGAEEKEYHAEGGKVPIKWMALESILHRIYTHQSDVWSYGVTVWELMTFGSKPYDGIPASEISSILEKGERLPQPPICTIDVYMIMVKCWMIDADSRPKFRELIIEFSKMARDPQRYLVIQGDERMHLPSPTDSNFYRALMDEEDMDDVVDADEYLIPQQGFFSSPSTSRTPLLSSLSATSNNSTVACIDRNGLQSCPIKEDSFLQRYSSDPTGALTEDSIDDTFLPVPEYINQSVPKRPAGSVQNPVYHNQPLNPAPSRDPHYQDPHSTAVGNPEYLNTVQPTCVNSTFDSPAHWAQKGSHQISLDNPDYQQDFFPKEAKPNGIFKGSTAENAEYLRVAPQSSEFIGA
LYN A, sequence (P07948 whole entry): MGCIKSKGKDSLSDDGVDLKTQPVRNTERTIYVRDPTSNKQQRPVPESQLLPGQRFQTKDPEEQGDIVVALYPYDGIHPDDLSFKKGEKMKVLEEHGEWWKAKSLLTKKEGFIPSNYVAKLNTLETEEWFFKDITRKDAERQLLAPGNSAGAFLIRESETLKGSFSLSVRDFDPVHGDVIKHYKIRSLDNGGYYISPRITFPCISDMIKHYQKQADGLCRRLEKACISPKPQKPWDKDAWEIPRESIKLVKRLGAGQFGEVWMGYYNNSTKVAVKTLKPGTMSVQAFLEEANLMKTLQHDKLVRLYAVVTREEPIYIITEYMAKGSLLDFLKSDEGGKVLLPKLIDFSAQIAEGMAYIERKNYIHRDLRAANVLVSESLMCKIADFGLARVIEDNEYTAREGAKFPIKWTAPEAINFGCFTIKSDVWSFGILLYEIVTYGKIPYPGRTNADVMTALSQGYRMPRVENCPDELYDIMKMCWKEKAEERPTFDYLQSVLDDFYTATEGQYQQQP
FGFR3, sequence (P22607 23-806): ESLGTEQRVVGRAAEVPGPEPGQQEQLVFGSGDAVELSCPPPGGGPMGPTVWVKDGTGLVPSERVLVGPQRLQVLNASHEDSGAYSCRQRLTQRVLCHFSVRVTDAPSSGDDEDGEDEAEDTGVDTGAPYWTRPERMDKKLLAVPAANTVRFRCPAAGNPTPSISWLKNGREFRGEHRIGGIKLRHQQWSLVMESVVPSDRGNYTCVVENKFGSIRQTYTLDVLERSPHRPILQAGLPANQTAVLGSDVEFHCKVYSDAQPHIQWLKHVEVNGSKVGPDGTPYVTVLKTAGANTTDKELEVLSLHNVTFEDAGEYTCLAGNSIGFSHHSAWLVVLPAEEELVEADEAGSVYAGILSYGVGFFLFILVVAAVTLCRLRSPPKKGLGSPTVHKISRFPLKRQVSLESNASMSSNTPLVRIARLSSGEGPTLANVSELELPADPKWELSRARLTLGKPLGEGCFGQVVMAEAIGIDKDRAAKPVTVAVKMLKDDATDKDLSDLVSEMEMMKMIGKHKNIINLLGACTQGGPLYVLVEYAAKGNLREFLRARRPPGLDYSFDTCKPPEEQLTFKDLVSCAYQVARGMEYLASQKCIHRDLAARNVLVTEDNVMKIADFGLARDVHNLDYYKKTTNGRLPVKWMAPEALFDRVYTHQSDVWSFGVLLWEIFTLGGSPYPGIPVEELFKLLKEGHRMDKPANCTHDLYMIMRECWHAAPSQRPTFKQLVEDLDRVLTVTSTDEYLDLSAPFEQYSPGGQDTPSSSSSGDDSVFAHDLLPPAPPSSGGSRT
FGR, sequence (P09769 whole entry): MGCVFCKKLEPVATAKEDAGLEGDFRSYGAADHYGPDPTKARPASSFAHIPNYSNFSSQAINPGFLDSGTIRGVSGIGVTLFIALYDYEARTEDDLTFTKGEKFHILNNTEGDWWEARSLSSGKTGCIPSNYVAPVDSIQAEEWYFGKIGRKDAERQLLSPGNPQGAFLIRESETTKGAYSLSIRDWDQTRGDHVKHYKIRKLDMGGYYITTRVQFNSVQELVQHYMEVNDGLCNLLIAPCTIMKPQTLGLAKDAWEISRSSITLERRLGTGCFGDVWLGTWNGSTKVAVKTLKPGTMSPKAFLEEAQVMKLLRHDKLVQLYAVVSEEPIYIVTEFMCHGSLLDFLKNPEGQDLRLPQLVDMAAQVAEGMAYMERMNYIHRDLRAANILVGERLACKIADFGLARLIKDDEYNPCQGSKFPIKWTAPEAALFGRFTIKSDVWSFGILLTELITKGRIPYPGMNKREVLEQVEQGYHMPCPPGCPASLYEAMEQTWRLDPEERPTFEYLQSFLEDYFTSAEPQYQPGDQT
FYN, sequence (P06241 whole entry): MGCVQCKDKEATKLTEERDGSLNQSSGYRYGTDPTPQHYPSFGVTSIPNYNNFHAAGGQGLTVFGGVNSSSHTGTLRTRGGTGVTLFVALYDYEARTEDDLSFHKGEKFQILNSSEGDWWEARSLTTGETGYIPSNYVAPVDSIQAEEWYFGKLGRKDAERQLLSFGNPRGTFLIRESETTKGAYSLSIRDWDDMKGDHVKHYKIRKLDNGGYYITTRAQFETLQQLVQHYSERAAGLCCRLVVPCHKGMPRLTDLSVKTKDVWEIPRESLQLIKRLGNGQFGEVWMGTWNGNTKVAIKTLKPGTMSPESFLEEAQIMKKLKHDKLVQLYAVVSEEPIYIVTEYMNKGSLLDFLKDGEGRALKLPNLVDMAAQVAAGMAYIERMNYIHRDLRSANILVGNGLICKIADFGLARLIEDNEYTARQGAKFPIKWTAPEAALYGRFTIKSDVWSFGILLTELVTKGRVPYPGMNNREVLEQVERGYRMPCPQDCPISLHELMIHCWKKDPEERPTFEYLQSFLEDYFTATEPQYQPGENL

COC/C=C/C(=O)N1CC[C@@H](n2nc(-c3ccc(Oc4ccccc4)cc3)c(C(N)=O)c2N)C1 [SY-1530]
Inhibition (%), FGFR3 (FGFR3): 25% | Inhibition (%), FGR (FGR): 96% | Inhibition (%), FRK (FRK): 72% | Inhibition (%), FYN (FYN): 87% | Inhibition (%), LYN A (LYN A): 87% | Inhibition (%), YES1 (YES1): 94% | IC50 (TMD8): 15.6 nM | IC50 (B cell): 1.05 nM | IC50 (T cell): > 10000 nM | MTD (Beagle dog): 1000 mg/kg | MTD (Rat): 2000 mg/kg | Incubation time to saturation of covalent binding to BTK kinase (BTK): 30 min | Decrease of free inhibitor after incubation with BTK (BTK; 4 h incubation): more than 80% | Up-regulation of CD69 in B cells after anti-IgM (human peripheral B cells; continuous exposure, 10 nM): completely abolished | Up-regulation of CD69 in B cells after anti-IgM (human peripheral B cells; inhibitors washed out before BCR stimulation): blocked | Up-regulation of CD69 in T cells (human peripheral T cells; after washout of BTK inhibitors): not affected | CD69 up-regulation after T cell receptor stimulation (human peripheral T cells; continuous exposure, 10 µM): slightly inhibited | AUC0–∞ ([1]; iv, 3 mg/kg): 5458 ng·h/mL | CL ([1]; iv, 3 mg/kg): 9.32 mL/min/kg | Vss ([1]; iv, 3 mg/kg): 0.857 L/kg | t½ ([1]; iv, 3 mg/kg): 1.44 h | AUC0–∞ ([1]; po, 10 mg/kg): 4411 ng·h/mL | Cmax ([1]; po, 10 mg/kg): 1039 ng/mL | F (%) ([1]; po, 10 mg/kg): 24.2% | Tmax ([1]; po, 10 mg/kg): 1.08 h | t½ ([1]; po, 10 mg/kg): 3.85 h | AUC0–∞ ([1]; po, 30 mg/kg): 6365 ng·h/mL | Cmax ([1]; po, 30 mg/kg): 1572 ng/mL | F (%) ([1]; po, 30 mg/kg): 11.7% | Tmax ([1]; po, 30 mg/kg): 0.917 h | t½ ([1]; po, 30 mg/kg): 5.33 h | AUC0–∞ ([1]; po, 100 mg/kg): 9095 ng·h/mL | Cmax ([1]; po, 100 mg/kg): 2127 ng/mL | F (%) ([1]; po, 100 mg/kg): 5.00% | Tmax ([1]; po, 100 mg/kg): 1.25 h | t½ ([1]; po, 100 mg/kg): 5.03 h | Plasma protein binding (%) [2]: 94.8% | Plasma protein binding (%) [3]: 95.5% | Plasma protein binding (%) [4]: 95.3% | Ratio, TEC (TEC; [5]): 1.3 | IC50 (TEC; read-out: IC50 (nM), TEC, HTRF): 10.4 nM | Ratio, EGFR (EGFR; [5]): 225 | IC50 (EGFR; read-out: IC50 (nM), EGFR, HTRF): 360 nM
